Measurements taken from patent publication US12410428B2, “RNA-guided transcriptional regulation and methods of using the same for the treatment of back pain” (University of Utah Research Foundation, priority 2018, dated 2025).

How the values were obtained:
[1] = test system: TNFR1 signaling (NF-κB activity); test: NF-κB activity assay in HEK293T cells dosed with TNF-α; assay type: cell-based, human; conditions: 0.15 ng/mL TNF-α, 24 hours
Procedure: Measurement of functional effects of epigenome editing based gene downregulation. NE-κB activity assays. HEK293T cells and hADMSCs were transduced with the earlier mentioned NF-κB reporter vector and analyzed for changes in NF-κB activity in response to dosing cells with TNF-α/IL-1β (RnD systems, ProSpec). To further describe, cells expressing the NF-κB reporter were plated in white 96-well plates (HEK293T cells at 25,000 cells/well and hADMSCs at 5000 cells/well) and allowed to attach overnight. The next day cells were dosed with the appropriate amounts of inflammatory cytokines (0, […], 1, and/or 10 ng/mL of TNF-α/IL-1β) for 24 hours. At 24 hours luminescence corresponding to NF-κB activity was measured in one set of cells using the bright glo assay (Promega) and cell number was measured on another set of cells under the same treatment using the real-time glo assay (Promega). Changes in NF-κB activity were quantified as a fold change in luminescence relative to the no dose control for each cell type, with NF-κB activity normalized to cell number.

TNFR1 = test: Human NP cell CRISPRi: TNFR1 knockdown by qRT-PCR; assay type: cell-based; conditions: human NP cells
Procedure: Human NP Cell CRISPRi. […] Quantitative RT-PCR was performed to identify TNFR1 knockdown in these primary human NP cells. Additionally, flow-cytometry was performed to determine transduction efficiency in human NP cells.

Substance | NF-κB activity vs no dose control [1] | TNFR1 knockdown (TNFR1; with dCas9-KRAB) | TNFR1 knockdown (TNFR1; with dCas9 alone)
5′-CAGUGUUGCAACAGCGGGAC-3′ (expressed or natural sequence) [TNFR1 gRNA 1, 79] | no significant increase in NF-κB activity |  | 
5′-AUAAGCGUCCGACACAUGAU-3′ (expressed or natural sequence) [TNFR1 gRNA 4, 82] |  | 55% | no knockdown
